This note sets out measurements from ChEMBL document CHEMBL1136892, “New 1alpha,25-dihydroxy-19-norvitamin D(3) compounds constrained in a single A-ring conformation: synthesis of the analogues by ring-closing metathesis route and their biological evaluation” (J Med Chem, 2009).

For orientation: Ki means a measure of affinity in units of concentration, obtained from inhibition or displacement.

The subject of assay [1] is Rattus norvegicus. Put plainly: Effect on intestinal calcium transport in vitamin D-deficient weanling Sprague-Dawley rat assessed as increase in ratio of serosal to mucosal calcium level at 35100 pmol/day, ip administered as 4 consecutive daily doses measured 24 hrs after last dose by everted gut sac method. Type of assay: functional.
Assay [2] deals with Rattus norvegicus. Put plainly: Effect on bone calcium mobilization in vitamin D-deficient weanling Sprague-Dawley rat assessed as serum calcium level at 87 pmol/day, ip administered as 4 consecutive daily doses measured 24 hrs after last dose. The format is functional.
Assay [3] has as its system Rattus norvegicus. Briefly: Effect on intestinal calcium transport in vitamin D-deficient weanling Sprague-Dawley rat assessed as ratio of serosal to mucosal calcium level at 87 pmol/day, ip administered as 4 consecutive daily doses measured 24 hrs after last dose by everted gut sac method. Type of assay: functional.
The test system of assay [4] is HL-60. Briefly: Induction of human HL60 cell differentiation into monocytes after 4 days by NBT reduction assay. The format is functional.
Assay [5] has as its system Rattus norvegicus. Put plainly: Effect on bone calcium mobilization in vitamin D-deficient weanling Sprague-Dawley rat assessed as serum calcium level at 780 pmol/day, ip administered as 4 consecutive daily doses measured 24 hrs after last dose. Type of assay: functional.
The test system of assay [6] is Rattus norvegicus. Put plainly: Effect on intestinal calcium transport in vitamin D-deficient weanling Sprague-Dawley rat assessed as increase in ratio of serosal to mucosal calcium level at 2340 pmol/day, ip administered as 4 consecutive daily doses measured 24 hrs after last dose by everted gut sac method. Type of assay: functional.
Assay [7] addresses T1, Vitamin D3 receptor (Rattus norvegicus) (UniProt P13053).
T1 sequence (whole entry): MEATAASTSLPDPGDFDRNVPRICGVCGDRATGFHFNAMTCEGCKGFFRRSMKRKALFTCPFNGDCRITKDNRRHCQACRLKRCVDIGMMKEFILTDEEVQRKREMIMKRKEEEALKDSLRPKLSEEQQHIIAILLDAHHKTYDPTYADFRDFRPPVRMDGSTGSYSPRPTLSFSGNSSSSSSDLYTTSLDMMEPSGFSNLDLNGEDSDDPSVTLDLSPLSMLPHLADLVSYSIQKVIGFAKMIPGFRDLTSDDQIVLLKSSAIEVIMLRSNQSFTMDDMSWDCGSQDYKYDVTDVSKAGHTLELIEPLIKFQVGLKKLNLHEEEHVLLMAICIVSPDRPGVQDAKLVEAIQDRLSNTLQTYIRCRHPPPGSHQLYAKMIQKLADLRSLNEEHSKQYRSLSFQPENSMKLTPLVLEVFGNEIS
Briefly: Activity at VDR in rat osteosarcoma 17/2.8 cells assessed as transcriptional activation of 24-hydroxylase gene promoter after 16 hrs by luciferase reporter gene assay. (In general: Reporter assays use an easily measured gene product as a stand-in for the process of interest.)

Assay [8] relates to Rattus norvegicus. Briefly: Effect on intestinal calcium transport in vitamin D-deficient weanling Sprague-Dawley rat assessed as increase in ratio of serosal to mucosal calcium level at 260 pmol/day, ip administered as 4 consecutive daily doses measured 24 hrs after last dose by everted gut sac method. The format is functional.
Assay [9] concerns Rattus norvegicus. Briefly: Effect on intestinal calcium transport in vitamin D-deficient weanling Sprague-Dawley rat assessed as increase in ratio of serosal to mucosal calcium level at 7020 pmol/day, ip administered as 4 consecutive daily doses measured 24 hrs after last dose by everted gut sac method. Type of assay: functional.
Assay [10] relates to Rattus norvegicus. Briefly: Effect on intestinal calcium transport in vitamin D-deficient weanling Sprague-Dawley rat assessed as increase in ratio of serosal to mucosal calcium level at 780 pmol/day, ip administered as 4 consecutive daily doses measured 24 hrs after last dose by everted gut sac method. Type of assay: functional.
The subject of assay [11] is Rattus norvegicus. Briefly: Effect on bone calcium mobilization in vitamin D-deficient weanling Sprague-Dawley rat assessed as serum calcium level at 35100 pmol/day, ip administered as 4 consecutive daily doses measured 24 hrs after last dose. The format is functional.
The subject of assay [12] is Rattus norvegicus. Briefly: Effect on bone calcium mobilization in vitamin D-deficient weanling Sprague-Dawley rat assessed as serum calcium level at 2340 pmol/day, ip administered as 4 consecutive daily doses measured 24 hrs after last dose. The format is functional.
Assay [13] concerns Rattus norvegicus. Put plainly: Effect on bone calcium mobilization in vitamin D-deficient weanling Sprague-Dawley rat assessed as serum calcium level at 7020 pmol/day, ip administered as 4 consecutive daily doses measured 24 hrs after last dose. The format is functional.
Assay [14] deals with Rattus norvegicus. Put plainly: Effect on bone calcium mobilization in vitamin D-deficient weanling Sprague-Dawley rat assessed as serum calcium level at 260 pmol/day, ip administered as 4 consecutive daily doses measured 24 hrs after last dose. The format is functional.
For assay [15], the system named is HL-60. Put plainly: Ratio of ED50 of drug to ED50 of [3H]1-alpha,25-(OH)2D3 for induction of human HL60 cell differentiation into monocytes by NBT reduction assay. The format is functional.
Assay [16] addresses T1, Vitamin D3 receptor (Rattus norvegicus). Briefly: Ratio of Ki of the drug to Ki of [3H]1-alpha,25-(OH)2D3 for rat recombinant full length VDR.
The target is the same in assay [17]. Put plainly: Ratio of ED50 of compound to ED50 of [3H]1-alpha,25-(OH)2D3 for VDR in rat osteosarcoma 17/2.8 cells by 24-hydroxylase gene transcriptional activation assay.
In assay [18] the target is T2, Vitamin D3 receptor (Rattus norvegicus, UniProt P13053).
T2 sequence (P13053 whole entry): T1 sequence (whole entry)
Put plainly: Displacement of [3H]1-alpha,25-(OH)2D3 from rat recombinant full length VDR. In general terms: Loss of bound radioactivity is the signal in a displacement assay; it reports binding, not function.

Regarding `C=C1/C(=C\C=C2/CCC[C@]3(C)[C@@H]([C@H](C)CCCC(C)(C)O)CC[C@@H]23)C[C@@H](O)C[C@@H]1O` [CALCITRIOL], the Activity in assay [1] is 8.7 mg/dL; in assay [2] it was 4.9 mg/dL; in [3] it was 8.9 mg/dL; in assay [5] it was 5.8 mg/dL; in [6], 10.2 mg/dL; in assay [8], 12 mg/dL. Also, the Activity in assay [9] was 10.2 mg/dL; in [10] it was 11.3 mg/dL; in [11], 9 mg/dL; in assay [12], 7.3 mg/dL; in assay [13], 7.9 mg/dL; in assay [14], 5.6 mg/dL. Moreover, the ED50 in assay [4] turned out to be 3 ×10⁻⁹ M; in assay [7], 2 ×10⁻¹⁰ M.

As for `C=C1/C(=C\C=C2/CCC[C@]3(C)[C@@H]([C@H](C)CCCC(C)(C)O)CC[C@@H]23)C[C@H]2OCC=C2[C@@H]1O`, the “Ratio ED50” value in assay [15] turned out to be 330; in [17] it was 300. In addition, the Activity in assay [1] is 8.7 mg/dL; in assay [5] it was 4.3 mg/dL; in [9], 10.2 mg/dL; in assay [10], 11.3 mg/dL; in [11], 9.6 mg/dL; in assay [13], 6.1 mg/dL. Also, the ED50 in assay [4] stood at 1 ×10⁻⁶ M; in [7], 6 ×10⁻⁸ M. In [16], the Ratio Ki was found to be 600. Further, in assay [18], the Ki came to 60 nM.

Turning to `C=C1/C(=C\C=C2/CCC[C@]3(C)[C@@H]([C@H](C)CCCC(C)(C)O)CC[C@@H]23)C[C@@H](O)C2=CCO[C@H]12`, the “Ratio ED50” value in assay [15] worked out at 10; in assay [17], 30. Further, the values for the ED50 in assay [4] and in [7] were 3 ×10⁻⁸ M and 6 ×10⁻⁹ M, respectively. In addition, the Activity is 4.3 mg/dL in [5], 13.7 mg/dL in assay [9], 9.7 mg/dL in [10] and 4.6 mg/dL in assay [13]. In addition, the Ratio Ki in assay [16] turned out to be 2. The Ki in assay [18] is 0.2 nM.
